Measurements reported in patent US6737383B1, “Herbicidal oxadiazolidines” (priority 1999, dated 2004).

Tests used:
giant foxtail = assay: Test B pre/postemergence giant foxtail; assay type: in vivo, Setaria faberii
Method in brief: (§1)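 Response is a visual 0-to-10 score relative to untreated plants, where 0 means no effect and 10 means complete control, taken twelve to sixteen days after application. Treatments went onto soil at planting and onto foliage of 1- to 4-leaf plants, using a surfactant-containing non-phytotoxic solvent.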

smallflower flatsedge = assay: Test B flood test smallflower flatsedge; assay type: in vivo, Cyperus difformis
Method in brief: (§2)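 Each value is a visual injury score relative to controls, with 10 meaning complete control and 0 no effect. Evaluation took place twelve to sixteen days after the 2-leaf-stage plants were treated and kept in the greenhouse.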

rape = assay: Test B pre/postemergence rape; assay type: in vivo, Brassica napus
Method in brief: as §1

crabgrass = assay: Test B pre/postemergence crabgrass; assay type: in vivo, Digitaria sanguinalis
Method in brief: as §1

purple nutsedge = assay: Test B pre/postemergence purple nutsedge; assay type: in vivo, Cyperus rotundus
Method in brief: as §1

velvetleaf = assay: Test B pre/postemergence velvetleaf; assay type: in vivo, Abutilon theophrasti
Method in brief: as §1

surinam grass = assay: Test B pre/postemergence surinam grass; assay type: in vivo, Brachiaria decumbens
Method in brief: as §1

blackgrass = assay: Test B pre/postemergence blackgrass; assay type: in vivo, Alopecurus myosuroides
Method in brief: as §1

soybean = assay: Test B pre/postemergence soybean; assay type: in vivo, Glycine max
Method in brief: as §1

cocklebur = assay: Test B pre/postemergence cocklebur; assay type: in vivo, Xanthium strumarium
Method in brief: as §1

bamyardgrass = assay: Test B flood test barnyardgrass; assay type: in vivo, Echinochloa crus-galli
Method in brief: as §2

sugar beet = assay: Test B pre/postemergence sugar beet; assay type: in vivo, Beta vulgaris
Method in brief: as §1

corn = assay: Test B pre/postemergence corn; assay type: in vivo, Zea mays
Method in brief: as §1

duck salad = assay: Test B flood test duck salad; assay type: in vivo, Heteranthera limosa
Method in brief: as §2

bedstraw = assay: Test B pre/postemergence bedstraw; assay type: in vivo, Galium aparine
Method in brief: as §1

rice = assay: Test B flood test rice; assay type: in vivo, Oryza sativa
Method in brief: as §2

wheat = assay: Test B pre/postemergence wheat; assay type: in vivo, Triticum aestivum
Method in brief: as §1

[1] = Postemergence, Rate 62 g/ha, scale of 0 to 10, 0 is no effect, 10 is complete control
[2] = Postemergence, Rate 125 g/ha, scale 0 to 10, 0 is no effect, 10 is complete control
[3] = Postemergence, Rate 500 g/ha, scale of 0 to 10 where 0 is no effect and 10 is complete control
[4] = Preemergence, Rate 62 g/ha, scale 0 to 10 (0 no effect, 10 complete control)
[5] = Preemergence, Rate 125 g/ha, scale 0 to 10, 0 is no effect, 10 is complete control
[6] = Preemergence, Rate 500 g/ha, scale of 0 to 10 where 0 is no effect and 10 is complete control
[7] = Rate 250 g/ha, Postemergence, scale of 0 to 10 where 0 is no effect and 10 is complete control
[8] = Rate 62 g/ha, flood test species, Pre-emergence, visual evaluation after twelve to sixteen days
[9] = Rate 125 g/ha, under heading Pre-emergence, flood test species, visual evaluation after twelve to sixteen days
[10] = Rate 250 g/ha, Pre-emergence (flood test species), scale 0 to 10, 0 is no effect, 10 is complete control
[11] = Rate 500 g/ha, Pre-emergence section of Table B, 0 to 10 scale (0 no effect, 10 complete control)

CC(C)N(C(=O)n1oc(=O)n(CCC2OCCO2)c1=O)c1ccccc1 [Compound 560]
Giant foxtail plant response rating (giant foxtail; [1]): 2
Giant foxtail plant response rating (giant foxtail; [2]): 7
Plant response rating, Giant foxtail (giant foxtail; [3]): 8
Giant foxtail plant response rating (giant foxtail; [4]): 10
Giant foxtail plant response rating (giant foxtail; [5]): 10
Giant foxtail plant response rating (0 to 10 scale) (giant foxtail; Preemergence, Rate 250 g/ha): 10
Giant foxtail plant response rating (giant foxtail; [6]): 10
Plant response rating, Giant foxtail (giant foxtail; [7]): 7
Plant response rating, S. Flatsedge (0 to 10 scale, 0 is no effect, 10 is complete control) (smallflower flatsedge; [8]): 0
S. Flatsedge plant response rating (0 to 10 scale, 0 is no effect, 10 is complete control) (smallflower flatsedge; [9]): 0
S. Flatsedge plant response rating (smallflower flatsedge; [10]): 0
S. Flatsedge plant response rating (smallflower flatsedge; [11]): 0
Rape plant response rating (rape; [1]): 0
Plant response rating, Rape (rape; [3]): 7
Rape plant response rating (rape; [4]): 0
Rape plant response rating (rape; [5]): 3
Rape plant response rating (0 to 10 scale) (rape; Preemergence, Rate 250 g/ha): 7
Rape plant response rating (rape; [6]): 8
Plant response rating, Rape (rape; [7]): 4
Crabgrass plant response rating (crabgrass; [1]): 0
Crabgrass plant response rating (crabgrass; [2]): 4
Plant response rating, Crabgrass (crabgrass; [3]): 8
Crabgrass plant response rating (crabgrass; [4]): 9
Crabgrass plant response rating (crabgrass; [5]): 9
Crabgrass plant response rating (0 to 10 scale) (crabgrass; Preemergence, Rate 250 g/ha): 9
Crabgrass plant response rating (crabgrass; [6]): 10
Plant response rating, Crabgrass (crabgrass; [7]): 3
Nutsedge plant response rating (purple nutsedge; [1]): 3
Nutsedge plant response rating (purple nutsedge; [2]): 3
Plant response rating, Nutsedge (purple nutsedge; [3]): 5
Nutsedge plant response rating (purple nutsedge; [4]): 0
Nutsedge plant response rating (purple nutsedge; [5]): 3
Nutsedge plant response rating (0 to 10 scale) (purple nutsedge; Preemergence, Rate 250 g/ha): 7
Nutsedge plant response rating (purple nutsedge; [6]): 10
Plant response rating, Nutsedge (purple nutsedge; [7]): 3
Velvetleaf plant response rating (velvetleaf; [1]): 0
Plant response rating, Velvetleaf (velvetleaf; [3]): 0
Velvetleaf plant response rating (velvetleaf; [4]): 0
Velvetleaf plant response rating (velvetleaf; [5]): 2
Velvetleaf plant response rating (0 to 10 scale) (velvetleaf; Preemergence, Rate 250 g/ha): 2
Velvetleaf plant response rating (velvetleaf; [6]): 5
Plant response rating, Velvetleaf (velvetleaf; [7]): 0
B. signalgrass plant response rating (surinam grass; [1]): 0
B. signalgrass plant response rating (surinam grass; [2]): 3
Plant response rating, B. signalgrass (surinam grass; [3]): 7
B. signalgrass plant response rating (surinam grass; [4]): 4
B. signalgrass plant response rating (surinam grass; [5]): 7
B. signalgrass plant response rating (0 to 10 scale, 0 is no effect, 10 is complete control) (surinam grass; Preemergence, Rate 250 g/ha): 7
B. signalgrass plant response rating (surinam grass; [6]): 9
Plant response rating, B. signalgrass (surinam grass; [7]): 6
Blackgrass plant response rating (blackgrass; [1]): 2
Blackgrass plant response rating (blackgrass; [2]): 5
Plant response rating, Blackgrass (blackgrass; [3]): 7
Blackgrass plant response rating (blackgrass; [4]): 4
Blackgrass plant response rating (blackgrass; [5]): 6
Blackgrass plant response rating (0 to 10 scale) (blackgrass; Preemergence, Rate 250 g/ha): 9
Blackgrass plant response rating (blackgrass; [6]): 9
Plant response rating, Blackgrass (blackgrass; [7]): 7
Soybean plant response rating (soybean; [1]): 2
Plant response rating, Soybean (soybean; [3]): 3
Soybean plant response rating (soybean; [4]): 0
Soybean plant response rating (soybean; [5]): 0
Soybean plant response rating (0 to 10 scale) (soybean; Preemergence, Rate 250 g/ha): 1
Soybean plant response rating (soybean; [6]): 3
Plant response rating, Soybean (soybean; [7]): 2
Cocklebur plant response rating (cocklebur; [1]): 0
Cocklebur plant response rating (cocklebur; [2]): 0
Plant response rating, Cocklebur (cocklebur; [3]): 0
Cocklebur plant response rating (cocklebur; [4]): 0
Cocklebur plant response rating (cocklebur; [5]): 0
Cocklebur plant response rating (0 to 10 scale) (cocklebur; Preemergence, Rate 250 g/ha): 0
Cocklebur plant response rating (cocklebur; [6]): 0
Plant response rating, Cocklebur (cocklebur; [7]): 0
Plant response rating, Barnyardgrass (0 to 10 scale, 0 is no effect, 10 is complete control) (bamyardgrass; [8]): 0
Barnyardgrass plant response rating (0 to 10 scale, 0 is no effect, 10 is complete control) (bamyardgrass; [9]): 0
Barnyardgrass plant response rating (bamyardgrass; [10]): 0
Barnyardgrass plant response rating (bamyardgrass; [11]): 0
Sugarbeets plant response rating (sugar beet; [1]): 0
Plant response rating, Sugarbeets (sugar beet; [3]): 6
Sugarbeets plant response rating (sugar beet; [4]): 0
Sugarbeets plant response rating (sugar beet; [5]): 0
Sugarbeets plant response rating (0 to 10 scale) (sugar beet; Preemergence, Rate 250 g/ha): 3
Sugarbeets plant response rating (sugar beet; [6]): 7
Plant response rating, Sugarbeets (sugar beet; [7]): 0
Corn plant response rating (corn; [1]): 0
Corn plant response rating (corn; [2]): 0
Plant response rating, Corn (corn; [3]): 4
Corn plant response rating (corn; [4]): 0
Corn plant response rating (corn; [5]): 0
Corn plant response rating (0 to 10 scale) (corn; Preemergence, Rate 250 g/ha): 5
Corn plant response rating (corn; [6]): 5
Plant response rating, Corn (corn; [7]): 2
Plant response rating, Ducksalad (0 to 10 scale, 0 is no effect, 10 is complete control) (duck salad; [8]): 0
Ducksalad plant response rating (0 to 10 scale, 0 is no effect, 10 is complete control) (duck salad; [9]): 0
Ducksalad plant response rating (duck salad; [10]): 0
Ducksalad plant response rating (duck salad; [11]): 0
Bedstraw plant response rating (bedstraw; [1]): 0
Bedstraw plant response rating (bedstraw; [4]): 0
Bedstraw plant response rating (bedstraw; [5]): 0
Bedstraw plant response rating (0 to 10 scale) (bedstraw; Preemergence, Rate 250 g/ha): 5
Bedstraw plant response rating (bedstraw; [6]): 8
Plant response rating, Bedstraw (bedstraw; [7]): 0
Plant response rating, Rice (0 to 10 scale, 0 is no effect, 10 is complete control) (rice; [8]): 0
Rice plant response rating (0 to 10 scale, 0 is no effect, 10 is complete control) (rice; [9]): 0
Rice plant response rating (rice; [10]): 0
Rice plant response rating (rice; [11]): 0
Wheat plant response rating (wheat; [1]): 0
Plant response rating, Wheat (wheat; [3]): 6
Wheat plant response rating (wheat; [4]): 3
Wheat plant response rating (wheat; [5]): 5
Wheat plant response rating (0 to 10 scale) (wheat; Preemergence, Rate 250 g/ha): 6
Wheat plant response rating (wheat; [6]): 8
Plant response rating, Wheat (wheat; [7]): 3
